Results published in paper PMC6389962 (Nature Communications, 2019).
Read-outs that look alike come from different tables or passages of the source. Starred links: 1 amine or outer side, 2 acyl side, 3 side chain; linkers in the order of their positions; H or OH if unused. Positions of bridges follow the written chain, without caps; N, C: chain ends. Residues, ends and D or L forms follow the SMILES beside them. Chains are numbered I, II in the order given. X4 = C[C@@H](CNC(=O)N[C@@H](C)CNC(=O)[*:2])NC(=O)NC[C@H](CCC(=O)O)N[*:1]; X1 = C[C@@H](CNC(=O)N[C@@H](C)CNC(=O)[*:2])NC(=O)NC[C@H](C)N[*:1]; X5 = C[C@@H](CNC(=O)N[C@@H](C)CNC(=O)[*:1])NC(=O)NC[C@H](C)N[*:2]

Tests used:
in vitro = conditions: mouse, plasma, pH 7.4, % remaining analogue
Experimental: The oligomer was then diluted 1/50 with a solution of plasma/PBS pH 7.4 (1:1) to afford a final concentration of 5 µM and incubated at 37 °C (4 µL of the stock solution was diluted with 196 µL of plasma/PBS, pH 7.4, 1:1). Each compound was also incubated in the absence of plasma (196 µL of H2O/PBS, pH 7.4, 1:1). At the indicated time (20 min and 60 min) an aliquot of 70 µL was removed from each experimental reaction and pipetting into 175 µL of acetonitrile at 0 °C to quench the reaction (t = 0 min was determined using the reaction without plasma). The samples were frozen at –80 °C before analysis. The frozen samples were defrosted, stirred with a vortex 5 min and finally centrifuged 5 min at 16 °C (1500 × g). The supernatant was analysed by LC-MS. The time course of oligomer degradation was determined by integrating the area of the peak in the extracted ion chromatogram.
Supplementar y Figur e 2 : Mouse plasma degradation assay. […] Data are
mean ± SEM, n = 4. Source data are provided as a Source Data file (T able 2 tab).
Supplementar y Figur e 3.
Data are mean ± SEM, n = 3.
Source data are provided as a Source Data file […]

mouse GLP-1 receptor [1] = molecular target: T1, mouse GLP-1 receptor (Mus musculus, UniProt O35659); conditions: for Potency (%), percentage of potency compare to GLP-1-G^2: cAMP production, from EC50
T1 sequence (O35659 22-463): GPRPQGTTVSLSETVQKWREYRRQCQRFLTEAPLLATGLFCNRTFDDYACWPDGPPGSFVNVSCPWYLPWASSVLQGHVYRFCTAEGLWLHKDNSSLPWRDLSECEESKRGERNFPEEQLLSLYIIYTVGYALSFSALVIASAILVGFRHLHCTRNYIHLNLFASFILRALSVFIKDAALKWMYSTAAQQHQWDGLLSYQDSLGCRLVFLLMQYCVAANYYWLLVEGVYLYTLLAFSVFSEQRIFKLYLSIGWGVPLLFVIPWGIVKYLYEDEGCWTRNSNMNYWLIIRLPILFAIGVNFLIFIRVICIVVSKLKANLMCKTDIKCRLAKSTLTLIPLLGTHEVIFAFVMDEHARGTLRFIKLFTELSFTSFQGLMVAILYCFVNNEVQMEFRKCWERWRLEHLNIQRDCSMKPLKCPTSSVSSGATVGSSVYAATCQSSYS

normal mice (C57BL/6J) = assay: Blood glucose study in normal fed mice; assay type: in vivo, mouse; parameters: key to In vivo activity (indicator): + active; +++: + + + more active; conditions: for effect on blood glucose concentration: normal fed C57BL/6J mice, n = 3, 5 μg per mouse (50 nmol kg−1) i.v., monitored 6 h
Experimental: In the first study, we evaluated the effect of the analogues on the blood glucose concentration of normal mice (Fig. 3). The fed mice were treated with the analogues and their blood glucose concentration was monitored before and after dosing for 6 h. […] Indeed, a decrease of blood glucose concentration is observed after 30 min and the effect is preserved for 4 h after dosing.
Fig. 3 Blood glucose study in mice. a–c Blood glucose concentration in normal mice (C57BL/6J, male, 20–25 g, n = 3) before and after dosing: 5 μg per mouse (50 nmol kg^−1) i.v. Formulation: 20 μg mL^−1 in PBS 1×. The dosing was done at T0. Data are mean ± SEM. […] Source data are provided as a Source Data file
After the acclimation period (at least 5 days), mice (male C57BL/6J mice (Charles River laboratories) 8 weeks old, 20–25 g) were randomized into 10 groups (n = 3 per group) according to their body weight. They were acutely treated via i.v. route at 10 am (5 µg per mouse). Blood glucose was measured before dosing and at 30 min, 1, 2, 4, 6 h after dosing in fed conditions.

mouse GLP-1 receptor [2] = molecular target: T1, mouse GLP-1 receptor; assay: cell-based; conditions: for Emax: 14: experiment 1
[3] = read-out: Top (best-fit value), variable slope four-parameter fit, unconstrained
[4] = read-out: Top (best-fit value), fit with BOTTOM = 0%

Compound	remaining at 20 min, 5 µM (in vitro)	remaining at 1 h, 5 µM (in vitro)	LogEC50 (best-fit value) (mouse GLP-1 receptor [1])	Potency (%), percentage of potency compare to GLP-1-G^2 (mouse GLP-1 receptor [1])	In vivo activity (indicator) (normal mice (C57BL/6J); mice, 50 nmol kg−1 i.v.)	effect on blood glucose concentration (normal mice (C57BL/6J))	EC50 (mouse GLP-1 receptor [2])	Emax (mouse GLP-1 receptor [2]; [3])	Emax (mouse GLP-1 receptor [2]; [4])
CC[C@H](C)[C@H](NC(=O)[C@H](Cc1ccccc1)NC(=O)[C@H](CCC(=O)O)NC(=O)[C@H](CCCCN)NC(=O)[C@H](C)NC(=O)NC[C@H](C)NC(=O)NC[C@H](C)NC(=O)NC[C@H](CCC(=O)O)NC(=O)[C@H](CC(C)C)NC(=O)[C@H](Cc1ccc(O)cc1)NC(=O)[C@H](CO)NC(=O)[C@H](CO)NC(=O)[C@@H](NC(=O)[C@H](CC(=O)O)NC(=O)[C@H](CO)NC(=O)[C@@H](NC(=O)[C@H](Cc1ccccc1)NC(=O)[C@@H](NC(=O)CNC(=O)[C@H](CCC(=O)O)NC(=O)CNC(=O)[C@@H](N)Cc1c[nH]cn1)[C@@H](C)O)[C@@H](C)O)C(C)C)C(=O)N[C@@H](C)C(=O)N[C@@H](Cc1c[nH]c2ccccc12)C(=O)N[C@@H](CC(C)C)C(=O)N[C@H](C(=O)N[C@@H](CCCCN)C(=O)NCC(=O)N[C@@H](CCCNC(=N)N)C(=O)NCC(N)=O)C(C)C [compound 11, GG2[E^uA^uA^u]^15-18] (I: H-HGEGTFTSDVSSYL / II: AKEFIAWLVKGRG-NH2; linker I:C-II:N via X4)	44.7%	31.1%	-8.721	13%	–	–	–	–	–
CC[C@H](C)[C@H](NC(=O)[C@H](Cc1ccccc1)NC(=O)[C@H](CCC(=O)O)NC(=O)[C@H](CCCCN)NC(=O)[C@H](C)NC(=O)[C@H](C)NC(=O)[C@H](CCC(N)=O)NC(=O)CNC(=O)[C@H](CCC(=O)O)NC(=O)NC[C@H](C)NC(=O)NC[C@H](Cc1ccc(O)cc1)NC(=O)NC[C@H](C)NC(=O)[C@@H](NC(=O)[C@H](CC(=O)O)NC(=O)[C@H](CO)NC(=O)[C@@H](NC(=O)[C@H](Cc1ccccc1)NC(=O)[C@@H](NC(=O)CNC(=O)[C@H](CCC(=O)O)NC(=O)CNC(=O)[C@@H](N)Cc1c[nH]cn1)[C@@H](C)O)[C@@H](C)O)C(C)C)C(=O)N[C@@H](C)C(=O)N[C@@H](Cc1c[nH]c2ccccc12)C(=O)N[C@@H](CC(C)C)C(=O)N[C@H](C(=O)N[C@@H](CCCCN)C(=O)NCC(=O)N[C@@H](CCCNC(=N)N)C(=O)NCC(N)=O)C(C)C [compound 5, GG2[A^uY^uA^u]^11-14]	55%	33.6%	-8.806	15%	+	showed efficacy but no improvement	1.6 nM	89.4%	–
CC[C@H](C)[C@H](NC(=O)[C@H](Cc1ccccc1)NC(=O)[C@H](CCC(=O)O)NC(=O)NC[C@H](C)NC(=O)NC[C@H](C)NC(=O)NC[C@H](C)NC(=O)CNC(=O)[C@H](CCC(=O)O)NC(=O)[C@H](CC(C)C)NC(=O)[C@H](Cc1ccc(O)cc1)NC(=O)[C@H](CO)NC(=O)[C@H](CO)NC(=O)[C@@H](NC(=O)[C@H](CC(=O)O)NC(=O)[C@H](CO)NC(=O)[C@@H](NC(=O)[C@H](Cc1ccccc1)NC(=O)[C@@H](NC(=O)CNC(=O)[C@H](CCC(=O)O)NC(=O)CNC(=O)[C@@H](N)Cc1c[nH]cn1)[C@@H](C)O)[C@@H](C)O)C(C)C)C(=O)N[C@@H](C)C(=O)N[C@@H](Cc1c[nH]c2ccccc12)C(=O)N[C@@H](CC(C)C)C(=O)N[C@H](C(=O)N[C@@H](CCCCN)C(=O)NCC(=O)N[C@@H](CCCNC(=N)N)C(=O)NCC(N)=O)C(C)C [compound 13, GG2[A^uA^uA^u]^17-20]	–	–	-5.795	–	–	–	1600 nM	57.7%	–
CC[C@H](C)[C@H](NC(=O)[C@H](Cc1ccccc1)NC(=O)[C@H](CCC(=O)O)NC(=O)[C@H](CCCCN)NC(=O)[C@H](C)NC(=O)[C@H](C)NC(=O)[C@H](CCC(N)=O)NC(=O)CNC(=O)NC[C@H](C)NC(=O)NC[C@H](C)NC(=O)NC[C@H](C)NC(=O)[C@H](CO)NC(=O)[C@@H](NC(=O)[C@H](CC(=O)O)NC(=O)[C@H](CO)NC(=O)[C@@H](NC(=O)[C@H](Cc1ccccc1)NC(=O)[C@@H](NC(=O)CNC(=O)[C@H](CCC(=O)O)NC(=O)CNC(=O)[C@@H](N)Cc1c[nH]cn1)[C@@H](C)O)[C@@H](C)O)C(C)C)C(=O)N[C@@H](C)C(=O)N[C@@H](Cc1c[nH]c2ccccc12)C(=O)N[C@@H](CC(C)C)C(=O)N[C@H](C(=O)N[C@@H](CCCCN)C(=O)NCC(=O)N[C@@H](CCCNC(=N)N)C(=O)NCC(N)=O)C(C)C [compound 6, GG2[A^uA^uA^u]^12-15]	–	–	–	< 0.01%	–	–	> 10000 nM	6.19%	6.08%
CC[C@H](C)[C@@H](CNC(=O)N[C@@H](C)CNC(=O)N[C@@H](CC(C)C)C(=O)N[C@H](C(=O)N[C@@H](CCCCN)C(=O)NCC(=O)N[C@@H](CCCNC(=N)N)C(=O)NCC(N)=O)C(C)C)NC(=O)N[C@@H](CNC(=O)[C@H](CCC(=O)O)NC(=O)[C@H](CCCCN)NC(=O)[C@H](C)NC(=O)[C@H](C)NC(=O)[C@H](CCC(N)=O)NC(=O)CNC(=O)[C@H](CCC(=O)O)NC(=O)[C@H](CC(C)C)NC(=O)[C@H](Cc1ccc(O)cc1)NC(=O)[C@H](CO)NC(=O)[C@H](CO)NC(=O)[C@@H](NC(=O)[C@H](CC(=O)O)NC(=O)[C@H](CO)NC(=O)[C@@H](NC(=O)[C@H](Cc1ccccc1)NC(=O)[C@@H](NC(=O)CNC(=O)[C@H](CCC(=O)O)NC(=O)CNC(=O)[C@@H](N)Cc1c[nH]cn1)[C@@H](C)O)[C@@H](C)O)C(C)C)Cc1ccccc1 [compound 16, GG2[F^uαf^uA^u]^22-25]	–	41.6%	–	0.4%	–	showed no activity	62 nM	–	228%
CC[C@H](C)[C@H](NC(=O)[C@H](Cc1ccccc1)NC(=O)[C@H](CCC(=O)O)NC(=O)[C@H](CCCCN)NC(=O)[C@H](C)NC(=O)[C@H](C)NC(=O)NC[C@H](C)NC(=O)NC[C@H](C)NC(=O)NC[C@H](C)NC(=O)[C@H](Cc1ccc(O)cc1)NC(=O)[C@H](CO)NC(=O)[C@H](CO)NC(=O)[C@@H](NC(=O)[C@H](CC(=O)O)NC(=O)[C@H](CO)NC(=O)[C@@H](NC(=O)[C@H](Cc1ccccc1)NC(=O)[C@@H](NC(=O)CNC(=O)[C@H](CCC(=O)O)NC(=O)CNC(=O)[C@@H](N)Cc1c[nH]cn1)[C@@H](C)O)[C@@H](C)O)C(C)C)C(=O)N[C@@H](C)C(=O)N[C@@H](Cc1c[nH]c2ccccc12)C(=O)N[C@@H](CC(C)C)C(=O)N[C@H](C(=O)N[C@@H](CCCCN)C(=O)NCC(=O)N[C@@H](CCCNC(=N)N)C(=O)NCC(N)=O)C(C)C [compound 8, GG2[A^uA^uA^u]^14-17] (I: AAKEFIAWLVKGRG-NH2 / II: H-HGEGTFTSDVSSY; linker I:N-II:C via X5)	–	–	-6.452	0.07%	–	–	353 nM	73.4%	–
CC[C@H](C)[C@H](NC(=O)[C@H](Cc1ccccc1)NC(=O)[C@H](CCC(=O)O)NC(=O)[C@H](CCCCN)NC(=O)[C@H](C)NC(=O)NC[C@H](C)NC(=O)NC[C@H](C)NC(=O)NC[C@H](C)NC(=O)[C@H](CC(C)C)NC(=O)[C@H](Cc1ccc(O)cc1)NC(=O)[C@H](CO)NC(=O)[C@H](CO)NC(=O)[C@@H](NC(=O)[C@H](CC(=O)O)NC(=O)[C@H](CO)NC(=O)[C@@H](NC(=O)[C@H](Cc1ccccc1)NC(=O)[C@@H](NC(=O)CNC(=O)[C@H](CCC(=O)O)NC(=O)CNC(=O)[C@@H](N)Cc1c[nH]cn1)[C@@H](C)O)[C@@H](C)O)C(C)C)C(=O)N[C@@H](C)C(=O)N[C@@H](Cc1c[nH]c2ccccc12)C(=O)N[C@@H](CC(C)C)C(=O)N[C@H](C(=O)N[C@@H](CCCCN)C(=O)NCC(=O)N[C@@H](CCCNC(=N)N)C(=O)NCC(N)=O)C(C)C [compound 10, GG2[A^uA^uA^u]^15-18] (I: H-HGEGTFTSDVSSYL / II: AKEFIAWLVKGRG-NH2; linker I:C-II:N via X1)	–	–	-6.91	0.2%	–	–	123 nM	61.5%	–
